Data from patent publication US6737383B1, “Herbicidal oxadiazolidines” (priority 1999, dated 2004).

Assays:
crabgrass = assay: Test B pre/postemergence crabgrass; type: in vivo, Digitaria sanguinalis
Outline: (§1)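 Test chemicals in a non-phytotoxic solvent mixture with surfactant were sprayed preemergence onto planted seeds and postemergence onto plants 2 to 18 cm tall (1- to 4-leaf stage). After twelve to sixteen days in a greenhouse, injury was visually rated against untreated controls from 0 (no effect) to 10 (complete control).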

morningglory = assay: Test B pre/postemergence morningglory; type: in vivo, Ipomoea hederacea
Outline: as §1

giant foxtail = assay: Test B pre/postemergence giant foxtail; type: in vivo, Setaria faberii
Outline: as §1

blackgrass = assay: Test B pre/postemergence blackgrass; type: in vivo, Alopecurus myosuroides
Outline: as §1

wheat = assay: Test B pre/postemergence wheat; type: in vivo, Triticum aestivum
Outline: as §1

rape = assay: Test B pre/postemergence rape; type: in vivo, Brassica napus
Outline: as §1

velvetleaf = assay: Test B pre/postemergence velvetleaf; type: in vivo, Abutilon theophrasti
Outline: as §1

cocklebur = assay: Test B pre/postemergence cocklebur; type: in vivo, Xanthium strumarium
Outline: as §1

corn = assay: Test B pre/postemergence corn; type: in vivo, Zea mays
Outline: as §1

bedstraw = assay: Test B pre/postemergence bedstraw; type: in vivo, Galium aparine
Outline: as §1

wild oat = assay: Test B pre/postemergence wild oat; type: in vivo, Avena fatua
Outline: as §1

pigweed = assay: Test B pre/postemergence pigweed; type: in vivo, Amaranthus retroflexus
Outline: as §1

surinam grass = assay: Test B pre/postemergence surinam grass; type: in vivo, Brachiaria decumbens
Outline: as §1

soybean = assay: Test B pre/postemergence soybean; type: in vivo, Glycine max
Outline: as §1

sugar beet = assay: Test B pre/postemergence sugar beet; type: in vivo, Beta vulgaris
Outline: as §1

purple nutsedge = assay: Test B pre/postemergence purple nutsedge; type: in vivo, Cyperus rotundus
Outline: as §1

[1] = Postemergence, Rate 62 g/ha, scale 0 to 10, 0 is no effect, 10 is complete control
[2] = Postemergence, Rate 125 g/ha, scale of 0 to 10 where 0 is no effect and 10 is complete control
[3] = Preemergence, Rate 125 g/ha, scale of 0 to 10 where 0 is no effect and 10 is complete control
[4] = Preemergence, Rate 250 g/ha, scale 0 (no effect) to 10 (complete control)
[5] = Rate 62 g/ha, Preemergence, scale 0 to 10
[6] = Rate 250 g/ha, Postemergence, scale 0 to 10, 0 is no effect, 10 is complete control
[7] = Rate 500 g/ha, Postemergence, scale 0 to 10, 0 is no effect, 10 is complete control
[8] = Rate 500 g/ha, Preemergence, scale 0 to 10 (0 no effect, 10 complete control)

In the case of `C#CCn1c(=O)on(C(=O)N(c2ccccc2)C(C)C)c1=O` [Compound 754], the “Plant response rating, Crabgrass” value (crabgrass; [1]) is reported as 5, the “Crabgrass plant response rating” value (crabgrass; [2]) is reported as 5 and the “Plant response rating, Crabgrass” value (crabgrass; [3]) is reported as 9. The “Crabgrass plant response rating” value (crabgrass; [4]) was 9, the “Crabgrass plant response rating” value (crabgrass; [5]) was 8 and the “Crabgrass plant response rating” value (crabgrass; [6]) was 9. The “Crabgrass plant response rating” value (crabgrass; [7]) was 9, the “Crabgrass plant response rating” value (crabgrass; [8]) was 9 and the “Plant response rating, Morningglory” value (morningglory; [1]) was 10. For the same compound, the “Morningglory plant response rating” value (morningglory; [2]) was 10, the “Plant response rating, Morningglory” value (morningglory; [3]) was 0 and the “Morningglory plant response rating” value (morningglory; [4]) was 1. For the same compound, the “Morningglory plant response rating” value (morningglory; [5]) was 0, the “Morningglory plant response rating” value (morningglory; [6]) was 10 and the “Morningglory plant response rating” value (morningglory; [7]) was 10. For the same compound, the “Morningglory plant response rating” value (morningglory; [8]) was 1, the “Plant response rating, Giant foxtail” value (giant foxtail; [1]) was 4 and the “Giant foxtail plant response rating” value (giant foxtail; [2]) was 8. The “Plant response rating, Giant foxtail” value (giant foxtail; [3]) was 9, the “Giant foxtail plant response rating” value (giant foxtail; [4]) was 9 and the “Giant foxtail plant response rating” value (giant foxtail; [5]) was 8. For the same compound, the “Giant foxtail plant response rating” value (giant foxtail; [6]) was 8, the “Giant foxtail plant response rating” value (giant foxtail; [7]) was 8 and the “Giant foxtail plant response rating” value (giant foxtail; [8]) was 9. The “Plant response rating, Blackgrass” value (blackgrass; [1]) was 2, the “Blackgrass plant response rating” value (blackgrass; [2]) was 4 and the “Plant response rating, Blackgrass” value (blackgrass; [3]) was 9. The “Blackgrass plant response rating” value (blackgrass; [4]) was 9, the “Blackgrass plant response rating” value (blackgrass; [5]) was 7 and the “Blackgrass plant response rating” value (blackgrass; [6]) was 5. The “Blackgrass plant response rating” value (blackgrass; [7]) was 5, the “Blackgrass plant response rating” value (blackgrass; [8]) was 9 and the “Plant response rating, Wheat” value (wheat; [1]) was 0. For the same compound, the “Plant response rating, Wheat” value (wheat; [3]) was 3, the “Wheat plant response rating” value (wheat; [4]) was 7 and the “Wheat plant response rating” value (wheat; [5]) was 0. For the same compound, the “Wheat plant response rating” value (wheat; [6]) was 5, the “Wheat plant response rating” value (wheat; [7]) was 5 and the “Wheat plant response rating” value (wheat; [8]) was 9. The “Plant response rating, Rape” value (rape; [1]) was 0, the “Rape plant response rating” value (rape; [2]) was 0 and the “Plant response rating, Rape” value (rape; [3]) was 4. The “Rape plant response rating” value (rape; [4]) was 6, the “Rape plant response rating” value (rape; [5]) was 0 and the “Rape plant response rating” value (rape; [6]) was 0. The “Rape plant response rating” value (rape; [7]) was 0, the “Rape plant response rating” value (rape; [8]) was 8 and the “Plant response rating, Velvetleaf” value (velvetleaf; [1]) was 0. The “Plant response rating, Velvetleaf” value (velvetleaf; [3]) was 1, the “Velvetleaf plant response rating” value (velvetleaf; [4]) was 3 and the “Velvetleaf plant response rating” value (velvetleaf; [5]) was 0. For the same compound, the “Velvetleaf plant response rating” value (velvetleaf; [6]) was 0, the “Velvetleaf plant response rating” value (velvetleaf; [7]) was 0 and the “Velvetleaf plant response rating” value (velvetleaf; [8]) was 5. The “Plant response rating, Cocklebur” value (cocklebur; [1]) was 0, the “Cocklebur plant response rating” value (cocklebur; [2]) was 0 and the “Plant response rating, Cocklebur” value (cocklebur; [3]) was 0. For the same compound, the “Cocklebur plant response rating” value (cocklebur; [4]) was 0, the “Cocklebur plant response rating” value (cocklebur; [5]) was 0 and the “Cocklebur plant response rating” value (cocklebur; [6]) was 0. For the same compound, the “Cocklebur plant response rating” value (cocklebur; [7]) was 0, the “Cocklebur plant response rating” value (cocklebur; [8]) was 0 and the “Plant response rating, Corn” value (corn; [1]) was 0. For the same compound, the “Corn plant response rating” value (corn; [2]) was 0, the “Plant response rating, Corn” value (corn; [3]) was 0 and the “Corn plant response rating” value (corn; [4]) was 0. The “Corn plant response rating” value (corn; [5]) was 0, the “Corn plant response rating” value (corn; [6]) was 2 and the “Corn plant response rating” value (corn; [7]) was 5. For the same compound, the “Corn plant response rating” value (corn; [8]) was 0, the “Bedstraw plant response rating” value (bedstraw; [2]) was 0 and the “Plant response rating, Bedstraw” value (bedstraw; [3]) was 0. The “Bedstraw plant response rating” value (bedstraw; [4]) was 0, the “Bedstraw plant response rating” value (bedstraw; [5]) was 0 and the “Bedstraw plant response rating” value (bedstraw; [6]) was 0. The “Bedstraw plant response rating” value (bedstraw; [8]) was 0, the “Plant response rating, Wild oats” value (wild oat; [1]) was 0 and the “Plant response rating, Wild oats” value (wild oat; [3]) was 6. The “Wild oats plant response rating” value (wild oat; [4]) was 8, the “Wild oats plant response rating” value (wild oat; [5]) was 0 and the “Wild oats plant response rating” value (wild oat; [6]) was 0. For the same compound, the “Wild oats plant response rating” value (wild oat; [7]) was 0, the “Wild oats plant response rating” value (wild oat; [8]) was 9 and the “Redroot pigweed plant response rating” value (pigweed; [2]) was 0. For the same compound, the “Plant response rating, Redroot pigweed” value (pigweed; [3]) was 8, the “Redroot pigweed plant response rating” value (pigweed; [4]) was 9 and the “Redroot pigweed plant response rating” value (pigweed; [5]) was 8. For the same compound, the “Redroot pigweed plant response rating” value (pigweed; [6]) was 0, the “Redroot pigweed plant response rating” value (pigweed; [8]) was 9 and the “Plant response rating, B. signalgrass” value (surinam grass; [1]) was 0. The “B. signalgrass plant response rating” value (surinam grass; [2]) was 2, the “B. signalgrass plant response rating” value (surinam grass; Preemergence, Rate 62 g/ha, scale of 0 to 10 where 0 is no effect and 10 is complete control) was 3 and the “Plant response rating, B. signalgrass” value (surinam grass; [3]) was 3. The “B. signalgrass plant response rating” value (surinam grass; [4]) was 8, the “B. signalgrass plant response rating” value (surinam grass; [6]) was 6 and the “B. signalgrass plant response rating” value (surinam grass; [7]) was 8. For the same compound, the “B. signalgrass plant response rating” value (surinam grass; [8]) was 9, the “Plant response rating, Soybean” value (soybean; [1]) was 0 and the “Plant response rating, Soybean” value (soybean; [3]) was 0. For the same compound, the “Soybean plant response rating” value (soybean; [4]) was 0, the “Soybean plant response rating” value (soybean; [5]) was 0 and the “Soybean plant response rating” value (soybean; [6]) was 2. The “Soybean plant response rating” value (soybean; [7]) was 2, the “Soybean plant response rating” value (soybean; [8]) was 0 and the “Plant response rating, Sugarbeets” value (sugar beet; [1]) was 0. The “Plant response rating, Sugarbeets” value (sugar beet; [3]) was 0, the “Sugarbeets plant response rating” value (sugar beet; [4]) was 3 and the “Sugarbeets plant response rating” value (sugar beet; [5]) was 0. For the same compound, the “Sugarbeets plant response rating” value (sugar beet; [6]) was 0, the “Sugarbeets plant response rating” value (sugar beet; [7]) was 3 and the “Sugarbeets plant response rating” value (sugar beet; [8]) was 7. The “Plant response rating, Nutsedge” value (purple nutsedge; [1]) was 0, the “Nutsedge plant response rating” value (purple nutsedge; [2]) was 0 and the “Plant response rating, Nutsedge” value (purple nutsedge; [3]) was 3. For the same compound, the “Nutsedge plant response rating” value (purple nutsedge; [4]) was 3, the “Nutsedge plant response rating” value (purple nutsedge; [5]) was 3 and the “Nutsedge plant response rating” value (purple nutsedge; [7]) was 0. For the same compound, the “Nutsedge plant response rating” value (purple nutsedge; [8]) was 10.
